Results reported in patent US8883137B2, “Compositions comprising selenium-rich yeast and yeast beta-glucan” (Angel Yeast Co., Ltd., priority 2008, dated 2014).

Assays:
NK cell = assay: Immunity experiment: NK cell activity, cellular immune function; assay type: in vivo; conditions: male BALB/c mice, gavage daily, three months; Example 1 0.50, selenium-enriched yeast 0.05, yeast beta-glucan 0.15, Vitamin C 0.20, Vitamin E 0.10 g/kg·bw
Procedure: (§1) 60 male BALB/c mice of clean grade with body weight 18-22 g were purchased from Shanghai Xipu'er-Bikai Experimental Animal Co., Ltd. (Add: […] Physiological saline was administered to the blank group. Three months later, a plurality of immune index of mice comprising thymus weight/body weight ratio, humoral immunity function (antibody index) and cellular immune function (NK cell activity) were measured. The measurement method was the same as the method for evaluating health food.

[1] = system: superoxide dismutase (SOD); assay: Anti-oxidation experiment: SOD activity; assay type: in vivo, human
Procedure: (§2) During the experiment, all the volunteers kept original living and dietary habits. […] Subsequently, the content of lipid peroxide (malondialdehyde (MDA)), superoxide dismutase (SOD) activity and glutathione peroxidase (GSH-PX) activity of the volunteers were measured. The measurement method was the same as the method for evaluating health food.

[2] = system: glutathione peroxidase (GSH-PX); assay: Anti-oxidation experiment: GSH-Px activity; assay type: in vivo, human
Procedure: as §2

BALB/c mice = assay: Immunity experiment: thymus weight/body weight ratio; assay type: in vivo; conditions: male BALB/c mice, gavage daily, three months; Example 1 0.50, selenium-enriched yeast 0.05, yeast beta-glucan 0.15, Vitamin C 0.20, Vitamin E 0.10 g/kg·bw
Procedure: as §1

[3] = system: lipid peroxide (malondialdehyde (MDA)); assay: Anti-oxidation experiment: content of lipid peroxide (MDA); assay type: in vivo, human
Procedure: as §2

spleen cells = assay: Immunity experiment: antibody cell detection (plaque forming cells), humoral immunity function; assay type: in vivo; conditions: male BALB/c mice, gavage daily, three months; Example 1 0.50, selenium-enriched yeast 0.05, yeast beta-glucan 0.15, Vitamin C 0.20, Vitamin E 0.10 g/kg·bw
Procedure: as §1

[4] = volunteers 45-65 years, before administration (baseline)
[5] = volunteers, after administration two times a day for three months, Example 2 500 mg, selenium-enriched yeast 150 mg, yeast beta-glucan 450 mg, Vitamin C 2.5 mg, Vitamin E 2.5 mg each time

| Molecule | NK cell activity (NK cell) | SOD activity [1, 4] | SOD activity [1, 5] | GSH-Px activity [2, 4] | GSH-Px activity [2, 5] | Thymus weight/body weight ratio (BALB/c mice) | MDA content [3, 4] | MDA content [3, 5] | Antibody cell detection Quantity of plaque forming cells (spleen cells) |
| --- | --- | --- | --- | --- | --- | --- | --- | --- | --- |
| O=C1O[C@H]([C@@H](O)CO)C(O)=C1O [Vitamin C] | 18.18 ± 4.14% | 13335.1 ± 1466.6 U/gHb | 13345.5 ± 1472.7 U/gHb | 121.6 ± 15.67 U/mL | 123.7 ± 15.33 U/mL | 1.80 ± 0.57 mg/g | 5.77 ± 0.65 nmol/mL | 5.75 ± 0.60 nmol/mL | 87 ± 41 /106 spleen cells |
| Vitamin E | 18.02 ± 5.31% | 13297.0 ± 2193.7 U/gHb | 13375.6 ± 2014.7 U/gHb | 120.8 ± 13.12 U/mL | 121.9 ± 9.78 U/mL | 1.90 ± 0.33 mg/g | 5.74 ± 0.55 nmol/mL | 5.72 ± 0.65 nmol/mL | 96 ± 21 /106 spleen cells |
